In ChEMBL document CHEMBL5465560, “Selectivity Literature for EUbOPEN Chemogenomic Library” (2024):

Columns and labels:
[1] = molecular target: Rho-associated protein kinase 2 (Homo sapiens, UniProt O75116); assay: Selectivity interaction (KinomeScan (DiscoverX)) EUB0000229b ROCK2; conditions: at 10 µM
[2] = molecular target: Serine/threonine-protein kinase pim-3 (Homo sapiens) (UniProt Q86V86); assay: Selectivity interaction (KinomeScan (DiscoverX)) EUB0000045b PIM3
[3] = molecular target: 1-phosphatidylinositol 3-phosphate 5-kinase (Homo sapiens) (UniProt Q9Y2I7); assay: Selectivity interaction (KinomeScan (DiscoverX)) EUB0000695a PIKFYVE; conditions: at 100 nM
[4] = molecular target: Ribosomal protein S6 kinase alpha-3 (Homo sapiens, UniProt P51812); assay: Selectivity interaction (KinomeScan (DiscoverX)) EUB0001079a RPS6KA3; conditions: at 1 µM
Ribosomal protein S6 kinase alpha-3, sequence (P51812 whole entry): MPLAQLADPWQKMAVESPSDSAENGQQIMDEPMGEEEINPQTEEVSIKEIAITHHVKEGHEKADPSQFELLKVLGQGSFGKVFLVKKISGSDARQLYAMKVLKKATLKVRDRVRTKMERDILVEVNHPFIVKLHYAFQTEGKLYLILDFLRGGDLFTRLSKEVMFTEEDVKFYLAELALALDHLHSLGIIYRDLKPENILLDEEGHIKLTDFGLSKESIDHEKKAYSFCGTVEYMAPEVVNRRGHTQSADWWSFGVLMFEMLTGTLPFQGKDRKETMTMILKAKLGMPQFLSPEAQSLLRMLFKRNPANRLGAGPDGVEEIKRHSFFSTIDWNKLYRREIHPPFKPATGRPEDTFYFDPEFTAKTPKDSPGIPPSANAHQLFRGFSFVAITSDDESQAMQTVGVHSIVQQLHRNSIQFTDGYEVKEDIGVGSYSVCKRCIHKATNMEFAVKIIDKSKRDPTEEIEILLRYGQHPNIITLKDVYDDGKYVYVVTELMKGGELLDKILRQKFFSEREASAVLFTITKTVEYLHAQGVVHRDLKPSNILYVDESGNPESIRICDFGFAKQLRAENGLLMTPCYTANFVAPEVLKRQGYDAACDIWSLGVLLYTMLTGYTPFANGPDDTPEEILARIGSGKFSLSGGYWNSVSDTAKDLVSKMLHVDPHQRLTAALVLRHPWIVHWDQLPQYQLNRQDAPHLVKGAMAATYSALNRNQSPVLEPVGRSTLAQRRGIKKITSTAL

[5] = molecular target: T1, Serine/threonine-protein kinase ULK2 (Homo sapiens) (UniProt Q8IYT8); assay: Selectivity interaction (LanthaScreen Eu Kinase Binding Assay) EUB0001632a ULK2; conditions: at 10 µM
T1 sequence (whole entry): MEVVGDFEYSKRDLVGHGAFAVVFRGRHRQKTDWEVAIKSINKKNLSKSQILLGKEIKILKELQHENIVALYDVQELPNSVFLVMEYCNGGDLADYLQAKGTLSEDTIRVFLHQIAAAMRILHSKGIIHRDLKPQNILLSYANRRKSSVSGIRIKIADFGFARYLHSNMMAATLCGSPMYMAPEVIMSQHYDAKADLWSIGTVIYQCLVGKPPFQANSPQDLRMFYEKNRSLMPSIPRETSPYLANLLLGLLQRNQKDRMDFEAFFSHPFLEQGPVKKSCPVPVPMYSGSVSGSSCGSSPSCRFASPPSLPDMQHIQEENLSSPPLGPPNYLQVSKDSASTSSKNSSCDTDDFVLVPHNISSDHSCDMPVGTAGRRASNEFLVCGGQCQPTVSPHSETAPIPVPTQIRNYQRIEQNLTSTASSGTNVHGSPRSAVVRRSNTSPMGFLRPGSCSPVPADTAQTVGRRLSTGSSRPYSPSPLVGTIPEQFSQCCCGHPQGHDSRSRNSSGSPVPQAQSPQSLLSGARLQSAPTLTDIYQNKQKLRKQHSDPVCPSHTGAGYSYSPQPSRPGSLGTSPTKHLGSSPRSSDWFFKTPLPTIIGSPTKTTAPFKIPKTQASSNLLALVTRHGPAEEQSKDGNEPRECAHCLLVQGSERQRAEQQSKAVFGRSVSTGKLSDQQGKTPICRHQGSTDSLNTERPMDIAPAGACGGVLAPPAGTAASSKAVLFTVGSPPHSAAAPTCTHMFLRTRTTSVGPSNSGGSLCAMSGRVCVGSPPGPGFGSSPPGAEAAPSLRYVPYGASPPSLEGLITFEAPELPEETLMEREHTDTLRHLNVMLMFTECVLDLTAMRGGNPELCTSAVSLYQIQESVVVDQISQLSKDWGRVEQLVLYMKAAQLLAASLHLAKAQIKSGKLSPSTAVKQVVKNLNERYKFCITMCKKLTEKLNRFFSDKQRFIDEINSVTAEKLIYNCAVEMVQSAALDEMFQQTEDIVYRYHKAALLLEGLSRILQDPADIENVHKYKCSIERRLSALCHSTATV

[6] = molecular target: Proto-oncogene tyrosine-protein kinase receptor Ret (Homo sapiens, UniProt P07949); conditions: at 10 µM
Proto-oncogene tyrosine-protein kinase receptor Ret, sequence (P07949 whole entry): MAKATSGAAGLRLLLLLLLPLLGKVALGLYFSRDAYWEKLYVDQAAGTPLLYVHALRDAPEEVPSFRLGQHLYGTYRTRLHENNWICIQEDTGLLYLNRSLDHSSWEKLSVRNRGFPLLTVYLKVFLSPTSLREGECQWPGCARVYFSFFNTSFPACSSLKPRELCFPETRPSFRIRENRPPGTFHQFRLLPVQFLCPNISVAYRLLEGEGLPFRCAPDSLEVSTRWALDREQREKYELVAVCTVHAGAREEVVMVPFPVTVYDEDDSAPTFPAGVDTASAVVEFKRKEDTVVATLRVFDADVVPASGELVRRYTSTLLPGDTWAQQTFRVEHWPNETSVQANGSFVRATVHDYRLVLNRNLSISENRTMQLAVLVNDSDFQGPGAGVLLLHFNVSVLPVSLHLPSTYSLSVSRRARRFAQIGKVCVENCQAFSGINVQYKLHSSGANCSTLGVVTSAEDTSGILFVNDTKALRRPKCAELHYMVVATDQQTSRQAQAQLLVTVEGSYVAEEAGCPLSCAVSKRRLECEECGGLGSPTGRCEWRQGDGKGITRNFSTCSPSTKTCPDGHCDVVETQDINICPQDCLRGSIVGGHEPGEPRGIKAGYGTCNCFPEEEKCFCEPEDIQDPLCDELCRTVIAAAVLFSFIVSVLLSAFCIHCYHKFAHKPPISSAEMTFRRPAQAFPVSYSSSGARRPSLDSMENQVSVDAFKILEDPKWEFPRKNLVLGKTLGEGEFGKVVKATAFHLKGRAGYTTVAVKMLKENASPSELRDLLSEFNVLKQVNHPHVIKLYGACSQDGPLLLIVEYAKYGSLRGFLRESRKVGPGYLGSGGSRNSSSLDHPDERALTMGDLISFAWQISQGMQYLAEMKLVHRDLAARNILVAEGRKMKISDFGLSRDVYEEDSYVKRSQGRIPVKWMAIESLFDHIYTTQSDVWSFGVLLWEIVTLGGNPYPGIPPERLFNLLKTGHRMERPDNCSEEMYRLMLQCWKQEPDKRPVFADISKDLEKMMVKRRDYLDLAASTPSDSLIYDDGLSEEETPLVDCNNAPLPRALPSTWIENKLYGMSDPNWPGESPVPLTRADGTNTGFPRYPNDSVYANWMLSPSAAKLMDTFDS

[7] = molecular target: Cyclin-dependent kinase 7 (Homo sapiens, UniProt P50613); assay: Selectivity interaction (KinomeScan (DiscoverX)) EUB0001049a CDK7; conditions: at 1 µM
Cyclin-dependent kinase 7, sequence (P50613 whole entry, the tested form may be a part): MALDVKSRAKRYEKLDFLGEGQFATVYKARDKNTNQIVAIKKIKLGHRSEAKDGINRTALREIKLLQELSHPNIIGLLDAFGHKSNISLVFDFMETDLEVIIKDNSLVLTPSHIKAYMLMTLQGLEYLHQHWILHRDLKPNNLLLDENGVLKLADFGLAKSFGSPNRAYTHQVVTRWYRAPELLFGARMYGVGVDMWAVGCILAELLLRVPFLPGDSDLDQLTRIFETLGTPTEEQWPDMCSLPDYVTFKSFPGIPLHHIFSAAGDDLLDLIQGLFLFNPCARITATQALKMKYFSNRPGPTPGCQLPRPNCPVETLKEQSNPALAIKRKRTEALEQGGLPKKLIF

[8] = molecular target: Coiled-coil domain-containing protein 6/Tyrosine-protein kinase receptor RET (Homo sapiens) (UniProt P07949+Q16204); assay: Selectivity interaction (ProQinase) EUB0000171b RET; format: protein assay
Coiled-coil domain-containing protein 6/Tyrosine-protein kinase receptor RET (Homo sapiens), sequence (P07949 29-1114 limits assumed): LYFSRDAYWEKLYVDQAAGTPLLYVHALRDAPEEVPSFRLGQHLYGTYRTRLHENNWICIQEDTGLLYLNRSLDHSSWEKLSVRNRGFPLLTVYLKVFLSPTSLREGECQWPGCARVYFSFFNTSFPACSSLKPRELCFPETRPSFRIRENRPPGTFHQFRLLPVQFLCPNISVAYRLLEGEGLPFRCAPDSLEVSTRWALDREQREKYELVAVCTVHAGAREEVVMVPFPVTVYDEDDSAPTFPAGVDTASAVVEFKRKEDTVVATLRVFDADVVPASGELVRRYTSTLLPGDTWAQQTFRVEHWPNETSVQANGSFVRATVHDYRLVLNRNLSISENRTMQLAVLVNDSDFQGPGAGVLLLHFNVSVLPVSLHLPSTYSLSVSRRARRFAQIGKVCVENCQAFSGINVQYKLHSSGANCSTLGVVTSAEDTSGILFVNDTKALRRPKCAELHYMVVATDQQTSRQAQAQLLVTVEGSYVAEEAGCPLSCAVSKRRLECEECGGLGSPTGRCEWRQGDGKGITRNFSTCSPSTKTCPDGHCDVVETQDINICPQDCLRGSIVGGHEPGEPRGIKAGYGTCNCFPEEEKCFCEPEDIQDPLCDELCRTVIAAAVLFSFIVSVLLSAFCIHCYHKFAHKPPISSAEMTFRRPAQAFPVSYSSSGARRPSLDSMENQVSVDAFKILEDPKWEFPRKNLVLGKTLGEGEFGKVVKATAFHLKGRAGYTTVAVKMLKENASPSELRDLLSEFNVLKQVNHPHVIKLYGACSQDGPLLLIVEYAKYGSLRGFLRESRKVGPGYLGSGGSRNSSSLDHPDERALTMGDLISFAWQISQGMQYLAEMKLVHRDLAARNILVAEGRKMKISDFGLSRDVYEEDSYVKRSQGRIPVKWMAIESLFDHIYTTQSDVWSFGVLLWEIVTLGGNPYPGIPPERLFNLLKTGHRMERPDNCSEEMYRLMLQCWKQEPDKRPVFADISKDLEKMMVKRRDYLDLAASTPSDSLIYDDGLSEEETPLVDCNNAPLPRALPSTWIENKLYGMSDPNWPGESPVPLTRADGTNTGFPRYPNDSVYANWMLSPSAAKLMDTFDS
Coiled-coil domain-containing protein 6/Tyrosine-protein kinase receptor RET (Homo sapiens), sequence (Q16204 2-474 partner limits assumed): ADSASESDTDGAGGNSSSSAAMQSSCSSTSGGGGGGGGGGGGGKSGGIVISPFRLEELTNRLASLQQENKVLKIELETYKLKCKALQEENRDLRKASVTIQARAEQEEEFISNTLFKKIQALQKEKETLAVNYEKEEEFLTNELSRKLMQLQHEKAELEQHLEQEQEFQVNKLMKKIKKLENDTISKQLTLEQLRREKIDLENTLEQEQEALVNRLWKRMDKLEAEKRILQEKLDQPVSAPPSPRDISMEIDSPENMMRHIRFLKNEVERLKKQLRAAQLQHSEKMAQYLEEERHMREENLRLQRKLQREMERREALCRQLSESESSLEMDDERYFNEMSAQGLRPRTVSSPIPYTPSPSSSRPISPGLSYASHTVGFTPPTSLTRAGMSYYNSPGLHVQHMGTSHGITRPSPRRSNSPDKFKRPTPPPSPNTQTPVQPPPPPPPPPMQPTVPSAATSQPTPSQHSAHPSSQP

[9] = molecular target: RAC-alpha serine/threonine-protein kinase (Homo sapiens, UniProt P31749); assay: Selectivity interaction (Kinase panel (literature)) EUB0001199aCl AKT1; conditions: at 1 µM
[10] = molecular target: Fibroblast growth factor receptor 4 (Homo sapiens, UniProt P22455); assay: Selectivity interaction (KinomeScan (DiscoverX)) EUB0000607a FGFR4; conditions: at 10 µM
Fibroblast growth factor receptor 4, sequence (P22455 22-802 limits assumed): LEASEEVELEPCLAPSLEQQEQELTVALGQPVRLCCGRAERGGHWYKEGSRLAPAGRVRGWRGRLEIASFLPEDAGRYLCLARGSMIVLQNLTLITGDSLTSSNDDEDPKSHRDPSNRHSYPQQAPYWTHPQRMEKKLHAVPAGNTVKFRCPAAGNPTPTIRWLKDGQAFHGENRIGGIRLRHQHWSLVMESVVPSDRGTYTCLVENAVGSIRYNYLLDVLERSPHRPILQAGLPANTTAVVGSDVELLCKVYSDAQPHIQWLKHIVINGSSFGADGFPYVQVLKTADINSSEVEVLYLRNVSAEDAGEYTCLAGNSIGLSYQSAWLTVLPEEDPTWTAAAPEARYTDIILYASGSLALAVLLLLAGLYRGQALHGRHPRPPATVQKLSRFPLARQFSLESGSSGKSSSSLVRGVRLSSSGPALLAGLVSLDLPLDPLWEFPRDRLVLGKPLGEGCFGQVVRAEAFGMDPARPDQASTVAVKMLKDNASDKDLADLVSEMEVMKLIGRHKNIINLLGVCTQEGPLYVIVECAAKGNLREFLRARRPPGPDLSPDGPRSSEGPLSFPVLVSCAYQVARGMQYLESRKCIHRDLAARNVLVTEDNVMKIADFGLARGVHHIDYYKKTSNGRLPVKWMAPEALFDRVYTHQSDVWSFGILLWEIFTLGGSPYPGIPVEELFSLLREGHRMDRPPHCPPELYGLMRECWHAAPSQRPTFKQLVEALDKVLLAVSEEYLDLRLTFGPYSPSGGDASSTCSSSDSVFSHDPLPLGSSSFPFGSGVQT

[11] = Selectivity interaction (KinomeScan (DiscoverX)) EUB0000618a PKNB; conditions: at 10 µM
[12] = molecular target: T2, Serine/threonine-protein kinase Nek9 (Homo sapiens) (UniProt Q8TD19); assay: Selectivity interaction (ActivX KiNativ screen (kinase selectivity in THP-1 cell lysates)) EUB0000639a NEK9; format: subcellular; conditions: lysate
T2 sequence (whole entry): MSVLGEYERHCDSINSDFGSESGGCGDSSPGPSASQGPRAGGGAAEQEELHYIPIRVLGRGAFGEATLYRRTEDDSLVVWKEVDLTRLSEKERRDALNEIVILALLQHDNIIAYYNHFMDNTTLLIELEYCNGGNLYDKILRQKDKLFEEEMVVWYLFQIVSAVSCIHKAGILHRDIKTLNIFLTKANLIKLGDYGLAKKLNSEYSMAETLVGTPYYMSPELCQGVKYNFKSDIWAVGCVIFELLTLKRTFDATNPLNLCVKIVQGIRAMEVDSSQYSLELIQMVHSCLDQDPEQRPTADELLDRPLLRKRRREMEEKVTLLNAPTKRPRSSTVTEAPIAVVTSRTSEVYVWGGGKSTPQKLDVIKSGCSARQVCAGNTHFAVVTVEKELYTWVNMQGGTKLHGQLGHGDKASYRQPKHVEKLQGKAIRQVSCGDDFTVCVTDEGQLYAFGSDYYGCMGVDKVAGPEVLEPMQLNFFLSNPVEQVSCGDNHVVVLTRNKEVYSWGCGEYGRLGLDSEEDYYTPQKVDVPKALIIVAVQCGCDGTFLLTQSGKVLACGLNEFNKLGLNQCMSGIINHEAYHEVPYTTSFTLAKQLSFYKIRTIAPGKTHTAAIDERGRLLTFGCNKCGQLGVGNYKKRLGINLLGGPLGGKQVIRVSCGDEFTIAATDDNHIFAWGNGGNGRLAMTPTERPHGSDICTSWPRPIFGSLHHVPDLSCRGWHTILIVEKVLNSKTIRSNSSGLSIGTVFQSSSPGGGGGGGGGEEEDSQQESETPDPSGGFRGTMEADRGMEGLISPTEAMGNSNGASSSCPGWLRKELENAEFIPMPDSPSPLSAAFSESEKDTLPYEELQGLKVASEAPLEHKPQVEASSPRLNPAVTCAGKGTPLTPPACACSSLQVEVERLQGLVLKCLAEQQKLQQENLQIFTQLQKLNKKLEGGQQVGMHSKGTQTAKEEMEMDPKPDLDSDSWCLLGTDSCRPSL

[13] = molecular target: Serine/threonine-protein kinase 32A (Homo sapiens) (UniProt Q8WU08); assay: Selectivity interaction (KinomeScan (DiscoverX)) EUB0000092b STK32A; conditions: at 10 µM

COc1cc(N(C)c2ccnc3ccc(C(F)(F)F)cc23)cc(OC)c1OC
% binding [1]: 100%

C=CC(=O)Nc1cc(-n2c(=O)ccc3cnc4ccc(-c5ccc(NS(C)(=O)=O)cc5)cc4c32)ccc1C
% of control ([2]; at 1 µM): 83% | % of control ([2]; at 10 µM): 82%

Cc1cc(F)c(C(=O)Nc2cccc(-c3nncn3C(C)C)n2)cc1-n1cnc(C2CC2)c1
% of control [3]: 98%

Nc1cnc(N2CCc3cc(S(=O)(=O)Nc4c(F)cc(Cl)cc4F)cc(N4CCCC4=O)c32)nc1 [TP-020n]
% of control [4]: 100%

Cn1cc(-n2cnc3c(NCc4nc5cc(Cl)c(Cl)cc5[nH]4)nc(N4CCOCC4)nc32)cn1
% of inhibition [5]: -117%

Cc1cc([C@@H](C)Nc2ccccc2C(=O)O)c2nc(N3CCOCC3)cc(=O)n2c1 [AZD-6482]
% of control [6]: 100%

COc1cc(Nc2nc(C)cc(-c3cnn4nc(OC)ccc34)n2)cc(C(F)(F)F)c1
% of control [7]: 73%

C=CC(=O)Nc1cccc(C(=O)Nc2ccc(Nc3cc(-c4[nH]c(SC)nc4C)ccn3)cc2)c1
% of control ([8]; at 1 µM): 84% | % of control ([8]; at 5 µM): 84%

CN1Cc2nccc(-c3cn(C)nc3-c3ccc(F)cc3)c2C1=O
% of inhibition [9]: 1%

CNC(=O)Nc1ccc(-c2nc(N3CC4CCC(C3)O4)c3cnn(C4CCC5(CC4)OCCO5)c3n2)cc1
% of control [10]: 62%

O[C@H]1CC[C@H](Nc2ncc3nc(Nc4c(F)cc(F)cc4F)n([C@H]4CCOC4)c3n2)CC1
% of control [11]: 92%

CC[C@@H]1[C@H](F)C(=O)N[C@@H]1COc1nccc2cc(C(N)=O)c(OC)cc12 [ZIMLOVISERTIB]
% of inhibition ([12]; at 0.01 µM): 0.3% | % of inhibition ([12]; at 0.04 µM): -3.6% | % of inhibition ([12]; at 0.2 µM): -11.2% | % of inhibition ([12]; at 1 µM): 7.7% | % of inhibition ([12]; at 5 µM): 0.4%

CCC(=O)N1CCN(c2ccc(-n3c(=O)ccc4cnc5ccc(-c6cnc7ccccc7c6)cc5c43)cc2C(F)(F)F)CC1
% of control [13]: 100%
